Data from the NIST ThermoML archive (doi:10.1021/acs.jced.8b01095).

Assay: xn = mol fraction of the nth substance listed
Conditions: Liquid; for viscosity: 2 kPa, Falling or rolling sphere viscometry; for speed of sound / mass density: 100 kPa; for speed of sound: Single path-length method; for mass density: Vibrating tube method

CNc1ccccc1 [N-methylaniline] + CCCCn1cc[n+](C)c1.F[P-](F)(F)(F)(F)F
Conditions | mass density [kg/m3] | speed of sound [m/s] | viscosity [mPa·s]
298.15 K, x2 = 0 | 982.7 | 1564.5 | 1.94
298.15 K, x2 = 0.1076 | 1064.1 | 1558.7 | 5.42
298.15 K, x2 = 0.2146 | 1128.52 | 1549.8 | 11.47
298.15 K, x2 = 0.3053 | 1174.31 | 1538.2 | 22.49
298.15 K, x2 = 0.3985 | 1214.23 | 1516.1 | 37.19
298.15 K, x2 = 0.4805 | 1243.22 | 1497.1 | 53.52
298.15 K, x2 = 0.5766 | 1272.38 | 1481.9 | 71.45
298.15 K, x2 = 0.6793 | 1299.48 | 1468.8 | 95.21
298.15 K, x2 = 0.7871 | 1325.04 | 1457.9 | 126.78
298.15 K, x2 = 0.9009 | 1348.44 | 1447.2 | 187.23
303.15 K, x2 = 0 | 978.59 | 1546.1 | 1.73
303.15 K, x2 = 0.1076 | 1060.11 | 1542.2 | 4.31
303.15 K, x2 = 0.2146 | 1124.54 | 1534.3 | 9.24
303.15 K, x2 = 0.3053 | 1170.33 | 1523.4 | 16.65
303.15 K, x2 = 0.3985 | 1210.27 | 1502.3 | 27.2
303.15 K, x2 = 0.4805 | 1239.24 | 1484.1 | 39.53
303.15 K, x2 = 0.5766 | 1268.37 | 1469.4 | 53.54
303.15 K, x2 = 0.6793 | 1295.43 | 1456.7 | 74.21
303.15 K, x2 = 0.7871 | 1320.94 | 1445.9 | 96.09
303.15 K, x2 = 0.9009 | 1344.33 | 1435.4 | 140.54
308.15 K, x2 = 0 | 974.47 | 1528.3 | 1.55
308.15 K, x2 = 0.1076 | 1056.11 | 1525.9 | 3.52
308.15 K, x2 = 0.2146 | 1120.57 | 1518.9 | 7.54
308.15 K, x2 = 0.3053 | 1166.34 | 1508.8 | 12.57
308.15 K, x2 = 0.3985 | 1206.32 | 1488.9 | 20.33
308.15 K, x2 = 0.4805 | 1235.26 | 1471.1 | 29.79
308.15 K, x2 = 0.5766 | 1264.35 | 1456.7 | 40.88
308.15 K, x2 = 0.6793 | 1291.38 | 1444.4 | 53.97
308.15 K, x2 = 0.7871 | 1316.84 | 1433.9 | 72.45
308.15 K, x2 = 0.9009 | 1340.21 | 1423.5 | 107.54
313.15 K, x2 = 0 | 970.36 | 1511.5 | 1.4
313.15 K, x2 = 0.1076 | 1052.12 | 1506.7 | 2.95
313.15 K, x2 = 0.2146 | 1116.59 | 1500.8 | 6.01
313.15 K, x2 = 0.3053 | 1162.35 | 1492.6 | 9.66
313.15 K, x2 = 0.3985 | 1202.36 | 1475.5 | 15.49
313.15 K, x2 = 0.4805 | 1231.27 | 1458 | 22.87
313.15 K, x2 = 0.5766 | 1260.34 | 1444.2 | 31.76
313.15 K, x2 = 0.6793 | 1287.33 | 1432.3 | 42.71
313.15 K, x2 = 0.7871 | 1312.75 | 1422.2 | 57.32
313.15 K, x2 = 0.9009 | 1336.1 | 1411.9 | 83.73
318.15 K, x2 = 0 | 966.24 | 1492.8 | 1.27
318.15 K, x2 = 0.1076 | 1048.13 | 1491.1 | 2.5
318.15 K, x2 = 0.2146 | 1112.61 | 1488.2 | 5
318.15 K, x2 = 0.3053 | 1158.36 | 1479.8 | 7.84
318.15 K, x2 = 0.3985 | 1198.4 | 1462.1 | 12.02
318.15 K, x2 = 0.4805 | 1227.29 | 1445.1 | 17.73
318.15 K, x2 = 0.5766 | 1256.33 | 1431.8 | 25.05
318.15 K, x2 = 0.6793 | 1283.28 | 1420.3 | 34.26
318.15 K, x2 = 0.7871 | 1308.65 | 1410.4 | 46.02
318.15 K, x2 = 0.9009 | 1331.99 | 1400.5 | 66.23
323.15 K, x2 = 0 | 962.13 | 1476.2 | 1.16
323.15 K, x2 = 0.1076 | 1044.13 | 1473.9 | 2.07
323.15 K, x2 = 0.2146 | 1108.64 | 1471.7 | 4.02
323.15 K, x2 = 0.3053 | 1154.38 | 1466.1 | 6.32
323.15 K, x2 = 0.3985 | 1194.44 | 1448.8 | 9.48
323.15 K, x2 = 0.4805 | 1223.3 | 1432.3 | 13.62
323.15 K, x2 = 0.5766 | 1252.31 | 1419.6 | 19.75
323.15 K, x2 = 0.6793 | 1279.23 | 1408.4 | 27.82
323.15 K, x2 = 0.7871 | 1304.56 | 1398.9 | 37.45
323.15 K, x2 = 0.9009 | 1327.88 | 1389.2 | 53.14
